Several values for one entry are separate records, joined by “and”; a condition that tells them apart may be missing. Equal entries are not always repeated.
System: moderate to severe plaque psoriasis
Assay: randomized, double-blind Phase II clinical study in plaque psoriasis (PGA, PtGA, PASI)
Type: in vivo, human
Details: for average reduction of PASI score: 12 weeks
Method: Patients were screened for eligibility and, up to 28 days later, at the baseline visit, randomized to one of three treatment groups (1:1:1): VB-201 20 mg/day: VB-201 80 mg/day: placebo/day. Patients consumed 2 capsules per day (VB-201 20 mg+placebo, VB-201 40 mg+40 mg, or 2× placebo). To ensure that the treatment assignments were concealed, all patients received 2 matching capsules of VB-201 or placebo.
The efficacy analyses were performed on the data from a modified intention-to-treat (MITT) population (defined as all patients randomized who received at least one dose of medication and had at least one efficacy evaluation). The safety analyses were performed on all randomized patients who received at least one dose of the drug.
A randomized, double-blind Phase II clinical study was performed in subjects with moderate to severe plaque psoriasis, in order to determine the efficacy of VB-201 in treating this condition. […] Patients underwent a wash-out period following any previous treatments. After screening and establishment of a baseline, eligible subjects were randomly assigned to receive 20 mg per day VB-201, 80 mg per day VB-201 or a daily placebo, for a period of 12 weeks.
Doses were administered orally at breakfast time with food. The maximal dose of VB-201 (80 mg/day) was determined according to earlier tolerability results (see, e.g., Example 4 of WO2011/083465).
Efficacy of each dosage level of VB-201 relative to placebo was determined according to the percentage of patients which achieved at least a 50% or 75% improvement over baseline PASI score at week 12.
Statistical comparisons were performed using a two-sided comparison with a 5% level of significance. All analyses were performed using Statistical Analysis Software (SAS®) Version 9.2.
Categorical analyses of Physician's Global Assessment and Patient's Psoriasis Global Assessment scores at Baseline, Week 8 and Week 12 were analyzed.
The Physician's Global Assessment (PGA) score was based on a 5-point scale with possible outcomes 0=clear, 1=almost clear, 2=mild, 3=moderate and 4=severe.
The Patient's Psoriasis Global Assessment (PtGA) score was based on a 6-point scale with possible outcomes 0=clear, 1=almost clear, 2=mild, 3=moderate, and 4 severe and 5=worst psoriasis has ever been.
The analyses that follow use the categorical nature of the PGA and PtGA, i.e. the 5-point or 6-point ordered scale which was considered more relevant than a continuous approach.
The proportion of patients with baseline, week 8 and week 12 PGA scores 0-3 vs. 4 (Clear or Almost Clear or Mild or Moderate vs. Severe) and PtGA scores of 0-2 vs. 3-5 (Clear or Almost Clear or Mild vs. Moderate or Severe or Worse).
Pairwise comparisons between placebo and each active dose group was made using Fisher's exact tests at the 5% level of significance.

CCCCCCCCCCCCCCCCOC[C@H](COP(=O)([O-])OCC[N+](C)(C)C)OCCCCC(=O)O [VB-201, 1-hexadecyl-2-(4′-carboxy)butyl-sn-glycero-3-phosphocholine]
PGA decrease from baseline to week 12 versus placebo (20 mg): statistically superior to that with placebo
PGA odds ratio, ordered logistic regression under the proportional odds model (20 mg and 80 mg groups combined vs placebo, p=0.049, CI=1.00-3.65): 1.91
Patient Global Assessment decrease from baseline to week 12 versus placebo (20 mg, p=0.12): trend for efficacy
PGA 0-3 (No/Almost Clear/Mild/Mod), % of patients (20 mg/day, Baseline): 83.87%
PGA 0-3 (No/Almost Clear/Mild/Mod), Freq. (20 mg/day, Baseline): 52
PGA 4 (Severe), % of patients (20 mg/day, Baseline): 16.13%
PGA 4 (Severe), Freq. (20 mg/day, Baseline): 10
PtGA 0-2 (No/Almost Clear/Mild), % of patients (20 mg/day, Baseline): 11.29%
PtGA 0-2 (No/Almost Clear/Mild), Freq. (20 mg/day, Baseline): 7
PtGA 3-5 (Mod/Severs/Worse), % of patients (20 mg/day, Baseline): 88.71%
PtGA 3-5 (Mod/Severs/Worse), Freq. (20 mg/day, Baseline): 55
PGA 0-3 (No/Almost Clear/Mild/Mod), % of patients (20 mg/day, Week 8): 96.8%
PGA 0-3 (No/Almost Clear/Mild/Mod), Freq. (20 mg/day, Week 8): 60
PGA 4 (Severe), % of patients (20 mg/day, Week 8): 3.2% and 3.23%
PGA 4 (Severe), Freq. (20 mg/day, Week 8): 2
PtGA 0-2 (No/Almost Clear/Mild), % of patients (20 mg/day, Week 8): 32.26%
PtGA 0-2 (No/Almost Clear/Mild), Freq. (20 mg/day, Week 8): 20
PtGA 3-5 (Mod/Severs/Worse), % of patients (20 mg/day, Week 8): 67.74%
PtGA 3-5 (Mod/Severs/Worse), Freq. (20 mg/day, Week 8): 42
PGA 0-3 (No/Almost Clear/Mild/Mod), % of patients (20 mg/day, Week 12/EOT): 95.16%
PGA 0-3 (No/Almost Clear/Mild/Mod), Freq. (20 mg/day, Week 12/EOT): 59
PGA 4 (Severe), % of patients (20 mg/day, Week 12/EOT): 4.8% and 4.84%
PGA 4 (Severe), Freq. (20 mg/day, Week 12/EOT): 3
PtGA 0-2 (No/Almost Clear/Mild), % of patients (20 mg/day, Week 12/EOT): 30.65%
PtGA 0-2 (No/Almost Clear/Mild), Freq. (20 mg/day, Week 12/EOT): 19
PtGA 3-5 (Mod/Severs/Worse), % of patients (20 mg/day, Week 12/EOT): 69.35%
PtGA 3-5 (Mod/Severs/Worse), Freq. (20 mg/day, Week 12/EOT): 43
PGA decrease from baseline to week 12 versus placebo (80 mg): trend for efficacy
Patient Global Assessment odds ratio, ordered logistic regression under the proportional odds model (80 mg vs. placebo, p=0.047, CI=1.01-3.80): 1.96
Patient Global Assessment decrease from baseline to week 12 versus placebo (80 mg, p=0.02): statistically superior to that with placebo
PGA 0-3 (No/Almost Clear/Mild/Mod), % of patients (80 mg/day, Baseline): 79.31%
PGA 0-3 (No/Almost Clear/Mild/Mod), Freq. (80 mg/day, Baseline): 46
PGA 4 (Severe), % of patients (80 mg/day, Baseline): 20.69%
PGA 4 (Severe), Freq. (80 mg/day, Baseline): 12
PtGA 0-2 (No/Almost Clear/Mild), % of patients (80 mg/day, Baseline): 11.86%
PtGA 0-2 (No/Almost Clear/Mild), Freq. (80 mg/day, Baseline): 7
PtGA 3-5 (Mod/Severs/Worse), % of patients (80 mg/day, Baseline): 88.14%
PtGA 3-5 (Mod/Severs/Worse), Freq. (80 mg/day, Baseline): 52
PGA 0-3 (No/Almost Clear/Mild/Mod), % of patients (80 mg/day, Week 8): 91.53%
PGA 0-3 (No/Almost Clear/Mild/Mod), Freq. (80 mg/day, Week 8): 54
PGA 4 (Severe), % of patients (80 mg/day, Week 8): 8.5% and 8.47%
PGA 4 (Severe), Freq. (80 mg/day, Week 8): 5
PtGA 0-2 (No/Almost Clear/Mild), % of patients (80 mg/day, Week 8): 33.90%
PtGA 0-2 (No/Almost Clear/Mild), Freq. (80 mg/day, Week 8): 20
PtGA 3-5 (Mod/Severs/Worse), % of patients (80 mg/day, Week 8): 66.1%
PtGA 3-5 (Mod/Severs/Worse), Freq. (80 mg/day, Week 8): 39
PGA 0-3 (No/Almost Clear/Mild/Mod), % of patients (80 mg/day, Week 12/EOT): 93.22%
PGA 0-3 (No/Almost Clear/Mild/Mod), Freq. (80 mg/day, Week 12/EOT): 55
PGA 4 (Severe), % of patients (80 mg/day, Week 12/EOT): 6.8% and 6.78%
PGA 4 (Severe), Freq. (80 mg/day, Week 12/EOT): 4
PtGA 0-2 (No/Almost Clear/Mild), % of patients (80 mg/day, Week 12/EOT): 38.98%
PtGA 0-2 (No/Almost Clear/Mild), Freq. (80 mg/day, Week 12/EOT): 23
PtGA 3-5 (Mod/Severs/Worse), % of patients (80 mg/day, Week 12/EOT): 61.0% and 61.02%
PtGA 3-5 (Mod/Severs/Worse), Freq. (80 mg/day, Week 12/EOT): 36
correlation between VB-201 plasma levels and PASI, PGA and PtGA efficacy endpoints (PGA p=0.04, PtGA p=0.001, FIG. 10): statistically significant dose response
efficacy compared to placebo in subgroups (exploratory analyses) (baseline PASI 14.3-18.5, age ≦46 years, BSA 16%-24%, psoriasis up to 20 years, no previous immunosuppressants or biologicals, elevated baseline hs-CRP): greater trends for efficacy
time course of the efficacy endpoints (over 3 months of treatment): continued to improve overtime and had not reached a plateau at 3 months
average reduction of PASI score (patients in quartile 1 of trough level): about 18%
average reduction of PASI score (patients in quartile 4 of trough level, p=0.009): about 45%
percent change from baseline in PASI at 12 weeks versus trough level (sub-population with baseline PASI score of about 14.3 to about 18.5, FIG. 9): significantly dependent on the trough level of VB-201
PASI 50 response rates and reductions in BSA compared to placebo (week 12): Trends for favorable efficacy

— patent US20160038518A1, “METHODS FOR TREATING PSORIASIS AND VASCULAR INFLAMMATION” (VASCULAR BIOGENICS LTD., priority 2012, published 2016)
